According to article PMC11843629, “Development of ketobenzothiazole-based peptidomimetic TMPRSS13 inhibitors with low nanomolar potency” (Journal of Enzyme Inhibition and Medicinal Chemistry, 2025):

Assays:
[1] = biological target: T1, TMPRSS13 (Homo sapiens, UniProt Q9BYE2, K566A/R563A/R565A); experiment: In vitro inhibition assay, recombinant TMPRSS13-AFAAS-6His, Boc-RVRR-AMC; format: biochemical; conditions: dose-response curve, Cheng-Prusoff equation
T1 construct: Shedding of the TMPRSS13 catalytic domain was detected for both constructs in the cell media; made in house; host or cells: Expi293F cells
T1 sequence (Q9BYE2 with tags, fused parts or gaps isoform Q9BYE2-6 limits assumed): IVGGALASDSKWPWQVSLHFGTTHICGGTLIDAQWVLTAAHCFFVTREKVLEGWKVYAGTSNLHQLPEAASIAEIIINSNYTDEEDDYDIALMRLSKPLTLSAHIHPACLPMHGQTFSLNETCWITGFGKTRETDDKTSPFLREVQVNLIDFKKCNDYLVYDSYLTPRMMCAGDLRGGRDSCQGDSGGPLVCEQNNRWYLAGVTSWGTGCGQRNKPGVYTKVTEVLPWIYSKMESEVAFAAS
Procedure: TMPRSS13-AFAAS-6His was expressed via the Expi293 Expression System Kit (Thermo Fisher Scientific, A14635) according to the manufacturer’s instructions and purified via IMAC chromatography. Briefly, Expi293F cells were transfected for 48 h with the TMPRSS13-AFAAS-6His construct, and media containing the shed recombinant protease was injected on a HisTrap Excel column (Cytiva, 17371206) via an ÄKTA Start protein purification system (Cytiva). The bound proteins were then eluted (20 mM sodium phosphate pH 7.4, 500 mM NaCl, and 500 mM imidazole), and the TMPRSS13-containing fractions were dialysed for 16 h at 4 °C in storage buffer (20 mM sodium phosphate pH 7.4, 150 mM NaCl, and 10% glycerol). Proteins were then concentrated via a 10 kDa Amicon Ultra centrifugal filter (Millipore Sigma, UFC8010) and stored at −80 °C.
(§1) Recombinant TMPRSS13-AFAAS-6His (this study) and matriptase[34] were expressed and purified as described. Recombinant human furin, Factor Xa (R&D Systems) and thrombin (MilliporeSigma) were obtained from commercial sources. Assays were performed in a buffer composed of 50 mM HEPES pH 7.4, 1 mM β-mercaptoethanol, 1 mM CaCl2 and 500 μg/ml BSA for furin and 50 mM HEPES pH 7.4, 150 mM NaCl and 0.1% BSA for other proteases. Assays were performed at room temperature using fluorogenic substrates (Boc-RVRR-AMC for furin and TMPRSS13, Boc-QAR-AMC for other proteases). The enzymatic activity was measured via fluorescence (excitation at 360 nm and emission at 460 nm) at room temperature using an HTX Synergy microplate reader (Agilent). Kis for TMPRSS13 and Factor Xa (FXa) were derived from IC50 dose–response curves using the Cheng-Prusoff equation[35] for reversible competitive inhibitors. For matripase, a plot of the enzyme velocity as a function of the inhibitor concentration was fitted with nonlinear regression analysis via the Morrison Ki equation[36] for competitive tight-binding inhibitors.

[2] = biological target: T2, Factor Xa (Homo sapiens, UniProt P00742); experiment: In vitro inhibition assay, Factor Xa, Boc-QAR-AMC; format: biochemical; conditions: Cheng-Prusoff equation
T2 construct: purchased R&D Systems
Procedure: as §1

[3] = system: human trypsin; experiment: Proteolysis assay (stability) with human trypsin; format: in vitro ADME; conditions: human trypsin (isolated protease), pH 7.4, compound final conc. 10 µM, 37 °C
Procedure: For the proteolysis assay, human trypsin (#T6424, Sigma–Aldrich, Saint-Louis, Missouri, USA) was resuspended in 1 mM HCl and 20 mM CaCl2, pH 3, and diluted to a final concentration of 0.1 mg/ml in PBS buffer (pH 7.4, 10 mM PO43-, 150 mM NaCl). The control peptide R8 and the compounds of interest were added to a 96-well plate (37 °C) to a final concentration of 10 µM. Trypsin (0.1 µg/ml) was added to the wells for 0, 0.5, 1, 2, 4 and 6 h. The plate was quenched with AcN/EtOH (1:1) 1% formic acid and 0.25 mM N,N-dimethylbenzamide (IS) and centrifuged at 4 °C.

[4] = in vitro; conditions: final conc. 0.2 mM, 37 °C; for half-life at 0.2 mM: male, Sprague-Dawley, rat, pooled rat plasma (K2EDTA), Mean half-life, Plasma
Text: Adult male Sprague-Dawley rats, weighing between 225 and 300 g (Charles River Laboratories, St. Constant, Canada), were housed in groups of four per double-decker cage on Aspen shavings in a quiet environment. They were maintained under a 12-h light/dark cycle with unrestricted access to food and water. All experimental protocols received approval from the Animal Care Committee of the Université de Sherbrooke, adhering to the Canadian Council on Animal Care guidelines. The procedures also followed the ARRIVE guidelines (Animals in Research: Reporting In Vivo Experiments) and the United States NIH regulations (Ethics approval ID: 2022–3440). To evaluate the stability of compounds in plasma, 6 rats were anaesthetised with 2 L/min oxygen and 5% isoflurane, after which plasma was collected, pooled, and stored frozen until experiments were performed.
For evaluating plasma stability, rats were anaesthetised using a flow of 2 L/min of oxygen combined with 5% isoflurane. Blood was obtained via cardiac puncture from the left ventricle using a 20 G ½ needle, collected in pre-chilled Vacutainer K2EDTA tubes (367861), and maintained on wet ice. The blood was then centrifuged at 2000 xG for 15 min at 4 °C. Plasma samples were pooled from six rats, aliquoted, and stored at −80 °C. […] To terminate the reaction, 140 μL of a 1:1 acetonitrile-ethanol solution containing 0.25 mM N,N-dimethylbenzamide (used as an internal standard) was added. The resulting mixture was transferred onto an Impact Protein Precipitation filter plate (Phenomenex, California), with a 96-well UPLC plate positioned below to collect the filtrates. Both plates were centrifuged at 500 × g for 10 min at 4 °C. The filtrates were diluted with 30 μL of distilled water before analysis using an Acquity UPLC-MS system class H (column Acquity UPLC protein BEH C18 (2.1 mm × 50 mm), 1.7 μm particles, 130 Å pore size). The peptide’s half-life was determined from the degradation profile utilising the exponential one-phase decay function in GraphPad Prism 9. Mass spectra obtained at time points close to the calculated half-life were compared with those at 0 min (plasma inactivated prior to compound addition) to identify cleavage fragments.

T2 sequence (P00742 235-488 limits assumed): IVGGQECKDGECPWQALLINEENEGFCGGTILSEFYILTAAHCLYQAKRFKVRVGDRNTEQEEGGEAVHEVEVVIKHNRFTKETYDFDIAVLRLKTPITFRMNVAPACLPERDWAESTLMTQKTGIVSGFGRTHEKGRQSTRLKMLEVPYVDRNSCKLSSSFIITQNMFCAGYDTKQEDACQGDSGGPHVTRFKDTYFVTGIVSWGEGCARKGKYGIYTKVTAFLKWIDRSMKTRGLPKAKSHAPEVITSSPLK
T2 sequence (P00742 41-179 partner limits assumed): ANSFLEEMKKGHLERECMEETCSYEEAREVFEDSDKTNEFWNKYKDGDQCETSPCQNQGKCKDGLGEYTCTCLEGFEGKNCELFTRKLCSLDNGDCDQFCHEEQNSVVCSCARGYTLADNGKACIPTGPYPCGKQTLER

| Structure (SMILES) | Ki [1] | Ki [2] | half-life at 10 µM [3] | half-life at 0.2 mM [4] | Mean half-life, Plasma ([4]; rat plasma (male)) |
| --- | --- | --- | --- | --- | --- |
| N=C(N)NCCCCC(=O)N[C@@H](CCC(N)=O)C(=O)N[C@@H](Cc1ccccc1)C(=O)N[C@@H](CCCNC(=N)N)C(=O)c1nc2ccccc2s1 [Compound N-0130, (H)-RQFR-Kbt] | 24.6 nM | 48.2 ± 3.7 nM | 105 h | 79.2 h | 78.5 h |
| N=C(N)NCCCCC(=O)N[C@@H](CCC(N)=O)C(=O)N[C@@H](CCc1ccccc1)C(=O)N[C@@H](CCCNC(=N)N)C(=O)c1nc2ccccc2s1 [Compound N-0430, (H)-RQhFR-Kbt] | 5.3 nM | 56.9 ± 9 nM | 29.5 h | 40.8 h | – |
